Marks after values point to notes of the source that are not given here.
How the values were obtained:
Type in all cases: in vivo
Conditions in all cases: 100 = 100% disease control
Botrytis cinerea = assay: Test C: tomato Botrytis on tomato seedlings, sprayed the day before inoculation, visual disease rating
Procedure, shortened: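 Tomato seedlings were sprayed until run-off with test suspensions in acetone/water (50/50) carrying 250 ppm polyhydric alcohol ester surfactant. Standard dose was 200 ppm, with 40 ppm for marked entries.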

Septoria nodorum = assay: Test F: wheat glume blotch on wheat seedlings, sprayed the day before inoculation, visual disease rating
Procedure, shortened: (§1)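 200 ppm run-off spray (500 g/ha equivalent); * = 40 ppm. Vehicle: acetone/water 50/50, 250 ppm Trem® 014.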

Septoria tritici = assay: Test G: wheat leaf blotch on wheat seedlings, sprayed the day before inoculation, visual disease rating
Procedure, shortened: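 Wheat seedlings were sprayed to run-off with test suspension (acetone/water plus surfactant), generally 200 ppm (≈500 g/ha), or 40 ppm where marked. Septoria tritici spores were inoculated the next day; plants were held 48 h at 24°C in saturated atmosphere, then 19 days at 20°C before visual disease rating.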

[1] = test system: Puccinia recondita f. sp. tritici; assay: Test I: wheat leaf rust on wheat seedlings, sprayed the day before inoculation, visual disease rating
Procedure, shortened: as §1

[2] = test system: Erysiphe graminis f. sp. tritici; assay: Test J: wheat powdery mildew on wheat seedlings, sprayed the day before inoculation, visual disease rating
Procedure, shortened: as §1

Alternaria solani = assay: Test D: tomato early blight, sprayed the day before inoculation, visual disease rating
Procedure, shortened: as §1

[3] = 200 ppm, 0 = no control relative to controls
[4] = 40 ppm (marked *), 0 = no control

Row | SMILES | Test C disease control rating (Botrytis cinerea; [3]) | Test F disease control rating (Septoria nodorum; [3]) | Test G disease control rating (Septoria tritici; [3]) | Test I disease control rating [1, 3] | Test J disease control rating [2, 3] | Test D disease control rating (Alternaria solani; [3]) | Test C disease control rating (Botrytis cinerea; 200 ppm, 0 = no control) | Test F disease control rating (Septoria nodorum; 200 ppm, 0 = no control) | Test G disease control rating (Septoria tritici; 200 ppm, 0 = no control) | Test I disease control rating ([1]; 200 ppm, 0 = no control) | Test J disease control rating ([2]; 200 ppm, 0 = no control) | Test D disease control rating (Alternaria solani; 200 ppm, 0 = no control) | also measured
1 | COc1ccc(F)c(-c2c(Cl)nc(C)n2-c2ccc(Cl)cc2)c1F [compound 122] | 98% | 100% | 96% | 100% | 100% | 100% |  |  |  |  |  |  | 
2 | Cc1ccc(-n2c(Br)nc(Cl)c2-c2c(F)cc(F)cc2F)cc1 [compound 153] |  |  |  |  |  |  | 98% | 69% | 96% | 99% | 100% | 100% | 
3 | COc1cc(F)c(-c2c(Cl)nc(Cl)n2-c2cccc(Cl)c2)c(F)c1 [compound 453] | 99% |  | 93% | 100% | 100% | 100% |  |  |  |  |  |  | Test F disease control rating (Septoria nodorum; 40 ppm (marked *)): 90* %
4 | COc1cc(F)c(-c2c(C)nc(C)n2-c2ccc(Cl)cc2)c(F)c1 [compound 55] |  |  |  |  |  |  |  |  |  |  |  |  | Test C disease control rating (Botrytis cinerea; 40 ppm (marked *)): 94* %; Test F disease control rating (Septoria nodorum; 40 ppm (marked *)): 98* %; Test G disease control rating (Septoria tritici; 40 ppm (marked *)): 93* %; Test I disease control rating ([1]; 40 ppm (marked *)): 99* %; Test J disease control rating ([2]; 40 ppm (marked *)): 100* %; Test D disease control rating (Alternaria solani; 40 ppm (marked *)): 100* %
5 | Cc1ccc(-n2c(Br)nc(Cl)c2-c2c(F)ccc(F)c2F)cc1 [compound 141] | 99% | 0% | 91% | 99% | 100% | 100% |  |  |  |  |  |  | 
6 | Fc1ccc(-n2c(Cl)nc(Cl)c2-c2c(F)cc(F)cc2F)cc1 [compound 147] |  |  |  |  |  |  | 91% | 82% | 100% | 100% | 99% | 100% | 
7 | Fc1ccc(-c2c(Cl)nc(Cl)n2-c2ccc(Cl)c(F)c2)c(Cl)c1 [compound 229] |  |  |  |  |  |  | 98% | 0% | 98% | 89% | 91% | 99% | 
8 | Cc1ccc(-n2c(C)nc(Cl)c2-c2c(F)ccc(F)c2F)cc1C [compound 238] |  |  |  |  |  |  | 99% | 0% | 93% | 96% | 100% | 99% | 
9 | Cc1nc(Cl)c(-c2c(F)cc(O)cc2F)n1-c1ccc(Cl)cc1 [compound 119] | 96% | 40% | 91% | 80% | 0% | 80% |  |  |  |  |  |  | 
10 | Fc1cccc(F)c1-n1cnc(Cl)c1-c1ccc(Cl)cc1 [compound 163] |  |  |  |  |  |  |  |  |  |  |  |  | Test C disease control rating (Botrytis cinerea; [4]): 0* %; Test F disease control rating (Septoria nodorum; [4]): 0* %; Test G disease control rating (Septoria tritici; [4]): 10* %; Test I disease control rating [1, 4]: 0* %; Test J disease control rating [2, 4]: 0* %; Test D disease control rating (Alternaria solani; [4]): 0* %
11 | Cc1ccc(-n2c(Br)nc(Cl)c2-c2ccc(F)cc2Cl)cc1 [compound 184] |  |  |  |  |  |  | 99% | 0% | 97% | 100% | 100% | 100% | 
12 | COc1ccc(Cn2c(Cl)nc(Cl)c2-c2c(F)cccc2F)cc1Cl [compound 213] |  |  |  |  |  |  | 63% | 0% | 96% | 100% | 42% | 0% | 
13 | COc1ccc(F)c(-c2c(Cl)ncn2-c2ccc(I)cc2)c1F [compound 448] | 97% | 89% | 98% | 95% | 98% | 100% |  |  |  |  |  |  | 
14 | C#Cc1nc(Cl)c(-c2c(F)cccc2F)n1-c1cccc(F)c1 [Compound 47, 4-chloro-5-(2,6-difluorophenyl)-2-ethynyl-1-(3-fluorophenyl)-1H-imidazole] |  |  |  |  |  |  |  |  |  |  |  |  | pest or weed control at 200 ppm (Botrytis cinerea; Botrytis cinerea, 120 h, 200 ppm, 0 = no control relative to controls): 94%; pest or weed control at 200 ppm (Septoria nodorum; Parastagonospora nodorum, 264 h, 200 ppm, 0 = no control relative to controls): 0%; pest or weed control at 200 ppm (Septoria tritici; Zymoseptoria tritici, 504 h, 200 ppm, 0 = no control relative to controls): 77%; pest or weed control at 200 ppm ([1]; Puccinia recondita, 168 h, 200 ppm, 0 = no control relative to controls): 54%; pest or weed control at 200 ppm ([2]; Blumeria graminis, 168 h, 200 ppm, 0 = no control relative to controls): 93%; pest or weed control at 200 ppm (Alternaria solani; Alternaria solani, 168 h, 200 ppm, 0 = no control relative to controls): 42%
15 | Cc1nn(C)c(-c2c(F)cccc2Cl)c1-c1ccc(Cl)cc1 [compound 61] | 40% | 0% | 60% | 92% | 99% | 0% |  |  |  |  |  |  | 
16 | Cc1nc(Cl)c(-c2c(F)cccc2F)n1-c1ccccc1F [compound 64] | 99% | 95% | 95% | 100% | 96% | 100% |  |  |  |  |  |  | 
17 | Fc1cccc(C(F)(F)F)c1-c1c(Cl)nc(Br)n1-c1ccc(Cl)cc1 [compound 86] | 0% | 0% | 93% | 27% | 99% | 0% |  |  |  |  |  |  | 
18 | Fc1cc(F)c(-n2c(Cl)nc(Br)c2-c2ccc(Cl)cc2)c(F)c1 [compound 233] |  |  |  |  |  |  |  |  |  |  |  |  | Test C disease control rating (Botrytis cinerea; [4]): 96* %; Test F disease control rating (Septoria nodorum; [4]): 0* %; Test G disease control rating (Septoria tritici; [4]): 95* %; Test I disease control rating [1, 4]: 41* %; Test J disease control rating [2, 4]: 94* %; Test D disease control rating (Alternaria solani; [4]): 88* %
19 | Cc1nn(C)c(-c2c(F)cc(F)cc2F)c1-c1ccc(Cl)c(F)c1 [compound 71] | 47% | 0% | 2% | 9% | 56% | 33% |  |  |  |  |  |  | 
20 | Fc1ccc(-n2c(Br)nc(Cl)c2-c2c(F)cc(F)cc2F)cc1 [compound 152] |  |  |  |  |  |  | 99% | 69% | 96% | 89% | 99% | 99% | 
21 | Fc1ccc(F)c(-c2c(Cl)nc(Cl)n2-c2ccc(Cl)c(Cl)c2)c1F [compound 234] |  |  |  |  |  |  | 95% | 0% | 98% | 55% | 98% | 99% | 
22 | COc1cc(F)c(-n2c(C)nc(C)c2-c2ccc(Cl)cc2)c(F)c1 [compound 249] |  |  |  |  |  |  |  |  |  |  |  |  | Test C disease control rating (Botrytis cinerea; [4]): 100* %; Test F disease control rating (Septoria nodorum; [4]): 73* %; Test G disease control rating (Septoria tritici; [4]): 93* %; Test I disease control rating [1, 4]: 74* %; Test J disease control rating [2, 4]: 81* %; Test D disease control rating (Alternaria solani; [4]): 99* %
23 | Fc1cccc(Cl)c1-c1c(Cl)nc(C(F)(F)F)n1-c1ccc(Cl)cc1 [compound 90] | 0% | 0% | 0% | 54% | 0% | 0% |  |  |  |  |  |  | 
24 | Fc1cc(-n2c(Cl)nc(Cl)c2-c2c(F)ccc(F)c2Cl)ccc1Cl [compound 220] |  |  |  |  |  |  | 98% | 0% | 97% | 99% | 100% | 99% | 
25 | Fc1cccc(F)c1-n1cnc(Br)c1-c1ccc(Cl)cc1 [compound 200] |  |  |  |  |  |  | 0% | 0% | 45% | 0% | 21% | 0% | 
26 | Cc1nc(Cl)c(Cc2c(F)cccc2F)n1-c1ccc(Cl)cc1 [compound 258] |  |  |  |  |  |  | 99% | 42% | 87% | 97% | 78% | 0% | 
27 | Cc1nc(Br)n(-c2c(F)cccc2F)c1-c1ccc(Cl)cc1 [compound 216] |  |  |  |  |  |  |  |  |  |  |  |  | Test C disease control rating (Botrytis cinerea; [4]): 99* %; Test F disease control rating (Septoria nodorum; [4]): 0* %; Test G disease control rating (Septoria tritici; [4]): 96* %; Test I disease control rating [1, 4]: 93* %; Test J disease control rating [2, 4]: 94* %; Test D disease control rating (Alternaria solani; [4]): 100* %

From US20110045101A1, “FUNGICIDAL SUBSTITUTED AZOLES” (E.I. Du Pont De Nemours and Company, priority 2009, published 2011)
